Series [1] has as its target T1, Glucocorticoid receptor (Homo sapiens, UniProt P04150).
T1 sequence (P04150 whole entry): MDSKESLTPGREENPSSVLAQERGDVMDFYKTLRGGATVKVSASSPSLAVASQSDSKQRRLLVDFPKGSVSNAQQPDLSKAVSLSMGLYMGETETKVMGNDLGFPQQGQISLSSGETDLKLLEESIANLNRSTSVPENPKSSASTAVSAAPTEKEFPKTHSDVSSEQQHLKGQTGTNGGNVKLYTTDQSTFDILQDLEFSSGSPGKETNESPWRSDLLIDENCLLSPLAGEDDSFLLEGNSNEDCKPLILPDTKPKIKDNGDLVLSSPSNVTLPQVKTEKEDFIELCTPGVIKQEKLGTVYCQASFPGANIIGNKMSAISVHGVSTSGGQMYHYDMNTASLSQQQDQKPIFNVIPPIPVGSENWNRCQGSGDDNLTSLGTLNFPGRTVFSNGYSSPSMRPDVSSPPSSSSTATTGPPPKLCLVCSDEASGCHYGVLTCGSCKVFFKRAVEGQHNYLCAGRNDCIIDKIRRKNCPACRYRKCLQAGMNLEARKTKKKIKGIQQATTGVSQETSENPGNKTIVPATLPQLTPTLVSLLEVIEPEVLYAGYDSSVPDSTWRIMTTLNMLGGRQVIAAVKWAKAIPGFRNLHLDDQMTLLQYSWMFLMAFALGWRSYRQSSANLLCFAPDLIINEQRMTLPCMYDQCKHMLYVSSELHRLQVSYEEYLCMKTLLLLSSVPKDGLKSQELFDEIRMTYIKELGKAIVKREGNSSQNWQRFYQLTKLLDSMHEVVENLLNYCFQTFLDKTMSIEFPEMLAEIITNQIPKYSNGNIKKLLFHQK
Put plainly: Agonist activity at glucocorticoid receptor in human MDA-kb2 cells transfected with MMTV-LUC assessed as induction of MMTV-LTR/promoter linked LUC gene by luciferase transactivation assay. In kind it is functional, cell-based.

For series [2], the target named is Voltage-gated inwardly rectifying potassium channel KCNH2 (Homo sapiens, UniProt Q12809). Put plainly: Inhibition of human ERG by patch clamp method.
Series [3] addresses T1, Glucocorticoid receptor. In words: Agonist activity at glucocorticoid receptor in human fibroblast assessed as inhibition of IL-1-beta-induced IL6 production treated 1 hr before IL1-beta challenge measured after 24 hrs by transrepression assay. In kind it is functional.
Series [4] deals with T1, Glucocorticoid receptor.
Description: Binding affinity to human glucocorticoid receptor by fluorescence polarization competitive binding assay
A further series addresses hERG (KCNH2) (Homo sapiens, UniProt Q12809). In words: Inhibition of human ERG at 1 uM.
The target in series [5] is D(1A) dopamine receptor (Homo sapiens) (UniProt P21728). In words: Inhibition of dopamine D1 receptor at 1 uM.
Series [6] in a line: Selectivity for human glucocorticoid receptor over androgen receptor.
For series [7], the target named is T2, Alpha-1B adrenergic receptor (Homo sapiens) (UniProt P35368).
T2 sequence (whole entry): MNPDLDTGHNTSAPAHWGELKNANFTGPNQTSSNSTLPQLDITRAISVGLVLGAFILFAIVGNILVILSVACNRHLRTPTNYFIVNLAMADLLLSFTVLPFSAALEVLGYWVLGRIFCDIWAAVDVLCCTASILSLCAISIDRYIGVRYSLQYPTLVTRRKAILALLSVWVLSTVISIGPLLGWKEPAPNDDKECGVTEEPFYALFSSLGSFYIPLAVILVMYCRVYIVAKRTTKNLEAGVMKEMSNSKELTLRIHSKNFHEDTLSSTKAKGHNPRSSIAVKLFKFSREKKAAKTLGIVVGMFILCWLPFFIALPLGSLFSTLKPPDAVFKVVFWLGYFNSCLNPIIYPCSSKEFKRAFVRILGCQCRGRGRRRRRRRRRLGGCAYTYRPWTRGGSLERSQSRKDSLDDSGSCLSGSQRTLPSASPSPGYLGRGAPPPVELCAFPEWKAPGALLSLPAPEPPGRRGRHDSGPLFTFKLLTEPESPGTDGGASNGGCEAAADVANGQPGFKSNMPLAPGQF
Put plainly: Inhibition of adrenergic Alpha-1B receptor at 1 uM.

Series [8] is described as follows: Inhibition of phencyclidine receptor at 1 uM.
The target of series [9] is Histamine H1 receptor (Homo sapiens) (UniProt P35367). Put plainly: Inhibition of histamine H1 receptor at 1 uM.
The target in series [10] is Prostaglandin E2 receptor EP4 subtype (Homo sapiens) (UniProt P35408). In words: Inhibition of prostanoid EP4 receptor at 1 uM.
The target of series [11] is Muscarinic acetylcholine receptor M3 (Homo sapiens) (UniProt P20309). In words: Inhibition of muscarinic M3 receptor at 1 uM.
Series [12] addresses T3, Alpha-2A adrenergic receptor (Homo sapiens) (UniProt P08913).
T3 sequence (whole entry): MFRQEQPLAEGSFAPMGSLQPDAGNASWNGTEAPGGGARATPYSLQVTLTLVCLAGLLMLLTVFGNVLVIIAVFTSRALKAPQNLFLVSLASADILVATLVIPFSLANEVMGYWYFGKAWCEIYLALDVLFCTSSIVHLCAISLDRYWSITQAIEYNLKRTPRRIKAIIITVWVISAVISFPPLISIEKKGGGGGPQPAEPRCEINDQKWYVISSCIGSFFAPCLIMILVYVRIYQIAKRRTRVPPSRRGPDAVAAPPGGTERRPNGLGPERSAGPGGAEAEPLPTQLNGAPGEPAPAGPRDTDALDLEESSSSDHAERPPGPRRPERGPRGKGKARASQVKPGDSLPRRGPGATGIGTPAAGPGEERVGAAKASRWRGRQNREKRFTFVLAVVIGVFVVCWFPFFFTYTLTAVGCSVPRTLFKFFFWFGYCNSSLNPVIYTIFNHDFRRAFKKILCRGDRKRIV
In words: Inhibition of adrenergic alpha2A receptor at 1 uM.

A short description of series [13]: Inhibition of sodium channel site 2 at 1 uM.
The nature of series [14]: Inhibition of sigma 2 receptor at 1 uM.
Series [15] can be described thus: Inhibition of NMDA receptor at 1 uM.
Series [16] has as its target T4, Adenosine receptor A1 (Homo sapiens) (UniProt P30542).
T4 sequence (whole entry): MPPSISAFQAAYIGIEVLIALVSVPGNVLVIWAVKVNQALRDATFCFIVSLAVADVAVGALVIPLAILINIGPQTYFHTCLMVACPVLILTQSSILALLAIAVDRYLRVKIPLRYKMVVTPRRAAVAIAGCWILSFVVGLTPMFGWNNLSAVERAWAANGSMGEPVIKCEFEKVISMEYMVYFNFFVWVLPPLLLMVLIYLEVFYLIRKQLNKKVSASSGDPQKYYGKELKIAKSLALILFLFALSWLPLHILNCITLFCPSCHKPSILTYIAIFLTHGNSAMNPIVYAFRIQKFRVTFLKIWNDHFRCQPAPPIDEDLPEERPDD
In words: Inhibition of adenosine A1 receptor at 1 uM.

Series [17] is described as follows: Selectivity for human glucocorticoid receptor over progesterone receptor.
In series [18] the target is Beta-2 adrenergic receptor (Homo sapiens) (UniProt P07550). Put plainly: Inhibition of adrenergic beta2 receptor at 1 uM.
The target of series [19] is Beta-1 adrenergic receptor (Homo sapiens) (UniProt P08588). In words: Inhibition of adrenergic beta-1 receptor at 1 uM.
The nature of series [20]: Inhibition of central benzodiazepine receptor at 1 uM.
Series [21] concerns the target D(2) dopamine receptor (Homo sapiens) (UniProt P14416). In words: Inhibition of dopamine D2S receptor at 1 uM.
A short description of series [22]: Selectivity for human glucocorticoid receptor over ERbeta.
Series [23] in a line: Inhibition of central imidazoline I2 receptor at 1 uM.
The nature of series [24]: Inhibition of ATP-sensitive potassium channel at 1 uM.
The target of series [25] is Sigma non-opioid intracellular receptor 1 (Homo sapiens) (UniProt Q99720). In words: Inhibition of sigma 1 receptor at 1 uM.
The target of series [26] is T5, Alpha-1A adrenergic receptor (Homo sapiens) (UniProt P35348).
T5 sequence (whole entry): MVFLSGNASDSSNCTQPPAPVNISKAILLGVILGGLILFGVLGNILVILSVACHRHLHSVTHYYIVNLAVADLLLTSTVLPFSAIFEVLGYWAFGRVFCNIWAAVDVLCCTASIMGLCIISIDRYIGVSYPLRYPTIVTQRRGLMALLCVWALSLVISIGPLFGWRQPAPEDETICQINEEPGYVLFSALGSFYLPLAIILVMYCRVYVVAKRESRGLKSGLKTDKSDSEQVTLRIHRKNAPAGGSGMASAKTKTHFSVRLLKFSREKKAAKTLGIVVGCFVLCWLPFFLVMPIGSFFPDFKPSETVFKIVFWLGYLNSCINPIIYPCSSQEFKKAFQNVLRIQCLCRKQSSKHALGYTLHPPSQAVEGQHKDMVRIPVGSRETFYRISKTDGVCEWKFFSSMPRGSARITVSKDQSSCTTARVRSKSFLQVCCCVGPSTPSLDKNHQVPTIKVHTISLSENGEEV
Put plainly: Inhibition of adrenergic alpha1A receptor at 1 uM.

Series [27] can be described thus: Inhibition of nicotinic bungarotoxin-sensitive acetylcholine receptor at 1 uM.
Series [28] in a line: Inhibition of GABAA receptor agonist site at 1 uM. In kind it is functional.
The target in series [29] is T6, Muscarinic acetylcholine receptor M2 (Homo sapiens) (UniProt P08172).
T6 sequence (whole entry): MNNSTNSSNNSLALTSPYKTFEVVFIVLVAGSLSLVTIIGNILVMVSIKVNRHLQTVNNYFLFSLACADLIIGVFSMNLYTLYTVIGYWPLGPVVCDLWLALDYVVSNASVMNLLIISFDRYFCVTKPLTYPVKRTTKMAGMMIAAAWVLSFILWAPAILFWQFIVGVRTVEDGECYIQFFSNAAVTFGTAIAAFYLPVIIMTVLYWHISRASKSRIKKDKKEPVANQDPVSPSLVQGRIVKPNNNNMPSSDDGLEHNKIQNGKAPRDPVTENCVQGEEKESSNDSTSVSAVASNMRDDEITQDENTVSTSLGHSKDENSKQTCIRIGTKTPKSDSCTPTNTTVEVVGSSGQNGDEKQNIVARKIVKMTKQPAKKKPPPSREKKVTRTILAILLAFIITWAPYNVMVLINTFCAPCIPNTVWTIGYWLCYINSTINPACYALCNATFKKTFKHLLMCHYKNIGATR
Put plainly: Inhibition of muscarinic M2 receptor at 1 uM.

The target in series [30] is Sodium-dependent noradrenaline transporter (Homo sapiens) (UniProt P23975). In words: Inhibition of norepinephrine transporter at 1 uM.
The target in series [31] is Adenosine receptor A2a (Homo sapiens) (UniProt P29274). In words: Inhibition of adenosine A2A receptor at 1 uM.
Series [32] can be described thus: Selectivity for human glucocorticoid receptor over ERalpha.
The nature of series [33]: Inhibition of rolipram binding site at 1 uM.
Series [34] can be described thus: Inhibition of phorbol ester site of PKC at 1 uM.
The nature of series [35]: Inhibition of calcium channel L type dihydropyridine binding site at 1 uM.
Series [36] can be described thus: Inhibition of nicotinic acetylcholine receptor at 1 uM.
Series [37] has as its target Mu-type opioid receptor (Homo sapiens) (UniProt P35372). Put plainly: Inhibition of mu opioid receptor at 1 uM.

What is called EC50 is the concentration at which the effect is half-maximal. As usually defined, the IC50 is the concentration needed to halve the response being measured. A low value points to greater potency. A word on the inhibition: it is the relative decrease from the control value, in per cent.

Sequence of Sodium-dependent noradrenaline transporter (Homo sapiens) (P23975 whole entry): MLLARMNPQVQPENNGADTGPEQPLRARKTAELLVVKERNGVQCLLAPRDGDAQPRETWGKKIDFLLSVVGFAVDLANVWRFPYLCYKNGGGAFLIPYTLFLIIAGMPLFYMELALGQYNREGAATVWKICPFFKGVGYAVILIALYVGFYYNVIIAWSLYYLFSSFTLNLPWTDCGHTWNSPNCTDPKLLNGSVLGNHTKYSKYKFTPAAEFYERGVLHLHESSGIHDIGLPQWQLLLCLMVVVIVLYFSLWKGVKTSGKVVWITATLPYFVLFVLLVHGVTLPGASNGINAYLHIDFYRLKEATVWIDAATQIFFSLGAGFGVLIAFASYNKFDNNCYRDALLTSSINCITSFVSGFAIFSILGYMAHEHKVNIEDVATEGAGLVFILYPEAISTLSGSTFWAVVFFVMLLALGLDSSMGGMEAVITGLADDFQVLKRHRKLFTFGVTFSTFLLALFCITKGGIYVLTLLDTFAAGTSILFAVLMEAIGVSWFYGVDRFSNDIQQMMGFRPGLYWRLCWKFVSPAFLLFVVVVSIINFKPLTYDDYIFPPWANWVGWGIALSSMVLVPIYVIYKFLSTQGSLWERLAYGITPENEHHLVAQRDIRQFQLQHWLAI
Sequence of Adenosine receptor A2a (Homo sapiens) (P29274 whole entry): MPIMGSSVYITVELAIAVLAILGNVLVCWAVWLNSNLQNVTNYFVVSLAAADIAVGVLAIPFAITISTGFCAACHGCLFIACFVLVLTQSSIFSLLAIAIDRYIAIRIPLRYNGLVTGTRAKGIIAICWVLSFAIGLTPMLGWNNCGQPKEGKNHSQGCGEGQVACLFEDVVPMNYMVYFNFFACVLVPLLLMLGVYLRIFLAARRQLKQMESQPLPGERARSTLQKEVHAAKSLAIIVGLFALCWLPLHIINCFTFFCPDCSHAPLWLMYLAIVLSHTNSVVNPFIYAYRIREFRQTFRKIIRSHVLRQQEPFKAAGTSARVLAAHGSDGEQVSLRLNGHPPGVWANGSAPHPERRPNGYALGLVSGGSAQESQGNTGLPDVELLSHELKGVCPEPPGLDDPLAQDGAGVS
Sequence of D(2) dopamine receptor (Homo sapiens) (P14416 whole entry): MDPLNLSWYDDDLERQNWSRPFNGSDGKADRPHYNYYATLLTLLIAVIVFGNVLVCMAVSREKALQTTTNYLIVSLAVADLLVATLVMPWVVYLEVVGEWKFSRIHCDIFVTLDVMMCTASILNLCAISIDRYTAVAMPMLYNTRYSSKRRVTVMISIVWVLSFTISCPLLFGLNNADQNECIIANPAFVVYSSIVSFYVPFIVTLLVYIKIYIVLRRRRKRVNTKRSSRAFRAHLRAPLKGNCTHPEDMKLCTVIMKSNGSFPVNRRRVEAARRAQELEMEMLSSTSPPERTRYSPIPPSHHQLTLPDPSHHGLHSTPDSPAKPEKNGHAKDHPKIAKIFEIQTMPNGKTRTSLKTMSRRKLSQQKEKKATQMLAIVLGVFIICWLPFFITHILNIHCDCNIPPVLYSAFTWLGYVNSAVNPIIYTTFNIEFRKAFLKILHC
Sequence of Mu-type opioid receptor (Homo sapiens) (P35372 whole entry): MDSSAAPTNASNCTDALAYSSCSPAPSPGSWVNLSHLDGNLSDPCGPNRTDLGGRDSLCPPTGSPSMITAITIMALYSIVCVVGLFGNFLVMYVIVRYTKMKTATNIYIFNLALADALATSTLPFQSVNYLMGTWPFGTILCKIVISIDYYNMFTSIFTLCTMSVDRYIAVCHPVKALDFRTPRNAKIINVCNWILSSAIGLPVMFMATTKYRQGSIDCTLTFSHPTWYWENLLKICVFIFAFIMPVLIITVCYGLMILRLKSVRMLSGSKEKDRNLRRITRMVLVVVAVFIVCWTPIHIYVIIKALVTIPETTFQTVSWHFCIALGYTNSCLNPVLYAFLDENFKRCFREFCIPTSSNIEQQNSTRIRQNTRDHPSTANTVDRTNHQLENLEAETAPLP
Sequence of Sigma non-opioid intracellular receptor 1 (Homo sapiens) (Q99720 whole entry): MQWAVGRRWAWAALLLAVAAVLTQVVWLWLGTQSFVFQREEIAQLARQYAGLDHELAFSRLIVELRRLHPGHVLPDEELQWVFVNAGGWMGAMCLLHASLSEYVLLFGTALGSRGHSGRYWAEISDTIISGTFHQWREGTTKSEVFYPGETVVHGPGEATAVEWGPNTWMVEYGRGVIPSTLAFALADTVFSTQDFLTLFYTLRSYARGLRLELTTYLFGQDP
Sequence of Histamine H1 receptor (Homo sapiens) (P35367 whole entry): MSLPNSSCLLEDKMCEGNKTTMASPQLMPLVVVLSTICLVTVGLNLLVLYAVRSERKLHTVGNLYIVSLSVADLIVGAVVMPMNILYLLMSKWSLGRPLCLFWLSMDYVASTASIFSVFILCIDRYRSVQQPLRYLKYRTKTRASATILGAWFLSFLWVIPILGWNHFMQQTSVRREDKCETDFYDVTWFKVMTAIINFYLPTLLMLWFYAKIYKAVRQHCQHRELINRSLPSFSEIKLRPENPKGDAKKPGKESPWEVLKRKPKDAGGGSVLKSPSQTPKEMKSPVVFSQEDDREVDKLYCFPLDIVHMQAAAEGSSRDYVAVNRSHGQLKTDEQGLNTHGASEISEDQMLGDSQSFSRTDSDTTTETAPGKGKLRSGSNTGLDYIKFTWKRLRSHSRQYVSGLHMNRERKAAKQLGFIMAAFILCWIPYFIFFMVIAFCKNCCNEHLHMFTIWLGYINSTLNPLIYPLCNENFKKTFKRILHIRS
Sequence of Beta-1 adrenergic receptor (Homo sapiens) (P08588 whole entry, looked up): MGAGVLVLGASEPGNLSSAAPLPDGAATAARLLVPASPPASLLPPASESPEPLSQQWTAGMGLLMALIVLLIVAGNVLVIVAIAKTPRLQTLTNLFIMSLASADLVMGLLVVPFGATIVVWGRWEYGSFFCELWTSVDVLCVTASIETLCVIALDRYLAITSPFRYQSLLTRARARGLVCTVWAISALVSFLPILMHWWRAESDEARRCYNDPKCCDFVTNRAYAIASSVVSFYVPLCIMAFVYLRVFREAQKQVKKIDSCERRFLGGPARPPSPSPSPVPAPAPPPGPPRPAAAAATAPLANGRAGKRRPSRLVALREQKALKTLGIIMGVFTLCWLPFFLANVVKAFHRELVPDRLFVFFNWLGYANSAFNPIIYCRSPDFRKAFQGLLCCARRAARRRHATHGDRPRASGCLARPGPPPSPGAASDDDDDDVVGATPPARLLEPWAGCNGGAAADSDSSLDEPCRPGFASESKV
Sequence of Beta-2 adrenergic receptor (Homo sapiens) (P07550 whole entry, looked up): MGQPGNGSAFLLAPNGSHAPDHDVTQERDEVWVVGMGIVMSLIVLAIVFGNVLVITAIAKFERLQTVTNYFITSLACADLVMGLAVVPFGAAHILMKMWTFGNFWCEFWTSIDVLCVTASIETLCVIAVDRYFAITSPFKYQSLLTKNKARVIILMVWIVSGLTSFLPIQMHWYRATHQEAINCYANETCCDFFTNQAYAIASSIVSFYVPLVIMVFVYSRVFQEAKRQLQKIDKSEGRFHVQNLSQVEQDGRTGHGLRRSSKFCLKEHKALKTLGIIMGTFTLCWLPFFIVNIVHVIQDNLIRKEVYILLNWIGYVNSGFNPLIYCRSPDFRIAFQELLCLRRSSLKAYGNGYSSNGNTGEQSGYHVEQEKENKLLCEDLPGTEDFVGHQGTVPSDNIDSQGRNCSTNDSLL
Sequence of Muscarinic acetylcholine receptor M3 (Homo sapiens) (P20309 whole entry, looked up): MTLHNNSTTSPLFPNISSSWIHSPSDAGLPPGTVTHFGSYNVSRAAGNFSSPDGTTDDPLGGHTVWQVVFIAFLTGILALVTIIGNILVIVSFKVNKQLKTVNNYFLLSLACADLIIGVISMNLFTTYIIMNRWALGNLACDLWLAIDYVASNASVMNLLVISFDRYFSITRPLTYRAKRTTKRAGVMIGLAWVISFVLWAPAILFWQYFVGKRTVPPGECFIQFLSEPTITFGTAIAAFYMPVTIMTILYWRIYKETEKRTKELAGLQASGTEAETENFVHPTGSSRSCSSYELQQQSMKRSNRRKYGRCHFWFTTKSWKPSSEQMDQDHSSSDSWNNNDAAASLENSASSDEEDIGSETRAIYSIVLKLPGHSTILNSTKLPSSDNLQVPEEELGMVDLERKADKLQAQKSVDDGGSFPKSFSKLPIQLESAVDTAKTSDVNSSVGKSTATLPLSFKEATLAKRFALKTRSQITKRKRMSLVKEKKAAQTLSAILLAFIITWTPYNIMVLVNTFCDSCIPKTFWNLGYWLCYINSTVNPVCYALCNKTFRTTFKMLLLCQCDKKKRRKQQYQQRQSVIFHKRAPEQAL
Sequence of D(1A) dopamine receptor (Homo sapiens) (P21728 whole entry): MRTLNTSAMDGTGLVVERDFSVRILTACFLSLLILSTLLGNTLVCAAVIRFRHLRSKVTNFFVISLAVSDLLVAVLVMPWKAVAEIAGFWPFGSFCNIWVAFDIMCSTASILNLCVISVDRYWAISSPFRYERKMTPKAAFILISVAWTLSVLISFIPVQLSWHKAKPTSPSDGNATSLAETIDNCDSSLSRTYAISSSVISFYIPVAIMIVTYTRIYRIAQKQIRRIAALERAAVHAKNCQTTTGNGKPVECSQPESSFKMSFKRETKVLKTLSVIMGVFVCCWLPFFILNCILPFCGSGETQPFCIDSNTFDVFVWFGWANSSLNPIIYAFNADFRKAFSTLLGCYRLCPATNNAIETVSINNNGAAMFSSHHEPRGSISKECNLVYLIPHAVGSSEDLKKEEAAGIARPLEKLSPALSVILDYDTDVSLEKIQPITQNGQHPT

As to `N#Cc1cc(C(O)(c2ccc3c(cnn3-c3ccc(F)cc3)c2)C(F)(F)F)ccc1F` (single isomer, unassigned; (-)) [listing 1 of 2 here], the EC50 entry on Glucocorticoid receptor [1] (mda-kb2) is “Not Active”; on Glucocorticoid receptor [3], 112 nM. For the same compound, the IC50 in [2] was greater than 10000 nM; on Glucocorticoid receptor [4], 54 nM. The inhibition at 1 µM on hERG (KCNH2) is less than 50%.
For `N#Cc1cc(C(O)(c2ccc3c(cnn3-c3ccc(F)cc3)c2)C(F)(F)F)ccc1F` (single isomer, unassigned; (-)) [listing 2 of 2 here], the inhibition in series [5], in series [7], in [8], in series [9], in [10] and in series [11] was less than 50% each time. Further, the inhibition in [12], in [13], in series [14], in series [15], in series [16] and in series [18] was less than 50% each time. The inhibition in series [19], in series [20], in series [21], in [23], in series [24] and in [25] was less than 50% in each case. Moreover, the inhibition in series [26], in series [27], in [28], in [29], in series [30] and in series [31] was less than 50% in each case. The inhibition in [33], in [34], in [35], in series [36] and in series [37] was less than 50% in each case. Also, the Ratio in [6], in [17], in series [22] and in [32] was greater than 1000 in each case.
`OC(c1ccc(F)c(Cl)c1)(c1ccc2c(cnn2-c2ccc(F)cc2)c1)C(F)(F)F` (single isomer, unassigned; (-)): the inhibition in series [5], in series [7], in series [8], in series [9], in series [10] and in series [11] was less than 50% throughout. The inhibition in [12], in series [13], in series [14], in series [15], in [16] and in [18] was less than 50% each time. Further, the inhibition in series [19], in series [20], in [21], in [23], in series [24] and in [25] was less than 50% each time. The inhibition in [26], in series [27], in [28], in series [29], in series [30] and in [31] was less than 50% in each case. Further, the inhibition in series [33], in series [34], in series [35], in series [36] and in series [37] was less than 50% in each case.
Take `OC(c1ccc(F)c(Cl)c1)(c1ccc2c(cnn2-c2ccc(F)cc2)c1)C(F)(F)F` (single isomer, unassigned; (-)) [1-(3-CHLORO-4-FLUOROPHENYL)-2,2,2-TRIFLUORO-1-(1-(4-FLUOROPHENYL)-1H-INDAZOL-5-YL)ETHANOL (ENANTIOMERIC MIX)]: the EC50 was 1100 nM at Glucocorticoid receptor [1] (read-out: EC50) and 93 nM on Glucocorticoid receptor [3]. The compound also registered an IC50 at Glucocorticoid receptor [4] of 49 nM.

For the origin of these results see ChEMBL document CHEMBL1157802, “5-Functionalized indazoles as glucocorticoid receptor agonists” (Bioorg Med Chem Lett, 2010).
